Results taken from ChEMBL document CHEMBL1909046, “DrugMatrix in vitro pharmacology data”.
pIC50, pKi: −log10 of the molar value.

Tests used:
[1] = target: T1, Alpha-1A adrenergic receptor (Rattus norvegicus, UniProt P43140); test: DRUGMATRIX: Alpha-1A adrenergic receptor radioligand binding (ligand: prazosin); assay type: cell membranes, Wistar, Submaxillary gland, Membrane; conditions: Not Active = under 50% inhibition at 10 µM; for pIC50: read-out: IC50; for pKi: read-out: Ki
T1 sequence (P43140 whole entry): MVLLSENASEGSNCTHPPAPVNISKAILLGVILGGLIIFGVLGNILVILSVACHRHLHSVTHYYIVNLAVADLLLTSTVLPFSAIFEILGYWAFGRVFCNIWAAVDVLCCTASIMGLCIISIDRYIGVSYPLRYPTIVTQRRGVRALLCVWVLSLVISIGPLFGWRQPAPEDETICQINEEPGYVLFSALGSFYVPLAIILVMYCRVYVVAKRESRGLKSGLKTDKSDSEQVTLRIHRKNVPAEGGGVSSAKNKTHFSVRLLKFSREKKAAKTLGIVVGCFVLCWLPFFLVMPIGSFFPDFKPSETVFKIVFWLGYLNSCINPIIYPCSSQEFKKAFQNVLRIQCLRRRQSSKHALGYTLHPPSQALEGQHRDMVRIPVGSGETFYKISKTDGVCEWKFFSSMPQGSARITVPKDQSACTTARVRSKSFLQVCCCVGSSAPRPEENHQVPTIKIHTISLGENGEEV

[2] = target: 5-hydroxytryptamine receptor 2B (Homo sapiens, UniProt P41595); assay type: cell membranes, CHO-K1, Membrane; conditions: for IC50: cho-k1; for pIC50: read-out: IC50; for pKi: read-out: Ki; on all read-outs here: in other assays of this panel Not Active means under 50% inhibition at 10 µM
5-hydroxytryptamine receptor 2B, sequence (P41595 whole entry): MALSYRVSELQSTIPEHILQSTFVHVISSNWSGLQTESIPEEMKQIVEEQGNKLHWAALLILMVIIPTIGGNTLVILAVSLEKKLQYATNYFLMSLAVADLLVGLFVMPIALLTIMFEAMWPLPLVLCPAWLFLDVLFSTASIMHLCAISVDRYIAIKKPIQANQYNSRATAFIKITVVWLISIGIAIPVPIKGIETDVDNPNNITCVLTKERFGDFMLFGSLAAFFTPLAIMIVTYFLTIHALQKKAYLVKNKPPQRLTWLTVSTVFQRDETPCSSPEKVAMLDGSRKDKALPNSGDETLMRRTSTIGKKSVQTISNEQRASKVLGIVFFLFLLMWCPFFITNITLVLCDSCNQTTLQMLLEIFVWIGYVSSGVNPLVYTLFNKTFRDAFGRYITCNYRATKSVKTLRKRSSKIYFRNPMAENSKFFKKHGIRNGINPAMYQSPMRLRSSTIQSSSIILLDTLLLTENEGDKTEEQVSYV

[3] = target: 5-hydroxytryptamine receptor 4 (Cavia porcellus, UniProt O70528); assay type: cell membranes, Dunkin-Hartley, Striatum, Membrane; further: in other assays of this panel Not Active means under 50% inhibition at 10 µM
5-hydroxytryptamine receptor 4, sequence (O70528 whole entry): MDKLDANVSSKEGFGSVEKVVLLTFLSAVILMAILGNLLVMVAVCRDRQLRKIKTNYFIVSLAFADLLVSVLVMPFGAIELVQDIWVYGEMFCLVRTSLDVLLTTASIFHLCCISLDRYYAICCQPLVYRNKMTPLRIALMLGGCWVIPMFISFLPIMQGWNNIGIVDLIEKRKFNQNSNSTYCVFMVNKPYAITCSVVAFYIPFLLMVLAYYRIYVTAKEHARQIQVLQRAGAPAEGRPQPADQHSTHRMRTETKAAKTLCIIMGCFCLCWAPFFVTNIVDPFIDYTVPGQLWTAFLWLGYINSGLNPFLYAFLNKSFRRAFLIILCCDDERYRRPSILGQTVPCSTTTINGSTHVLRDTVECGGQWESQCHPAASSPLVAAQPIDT

[4] = target: T2, Vasoactive intestinal polypeptide receptor 1 (Homo sapiens, UniProt P32241); assay type: cell membranes, Membrane; conditions: ht-29; further: in other assays of this panel Not Active means under 50% inhibition at 10 µM
T2 sequence (P32241 whole entry): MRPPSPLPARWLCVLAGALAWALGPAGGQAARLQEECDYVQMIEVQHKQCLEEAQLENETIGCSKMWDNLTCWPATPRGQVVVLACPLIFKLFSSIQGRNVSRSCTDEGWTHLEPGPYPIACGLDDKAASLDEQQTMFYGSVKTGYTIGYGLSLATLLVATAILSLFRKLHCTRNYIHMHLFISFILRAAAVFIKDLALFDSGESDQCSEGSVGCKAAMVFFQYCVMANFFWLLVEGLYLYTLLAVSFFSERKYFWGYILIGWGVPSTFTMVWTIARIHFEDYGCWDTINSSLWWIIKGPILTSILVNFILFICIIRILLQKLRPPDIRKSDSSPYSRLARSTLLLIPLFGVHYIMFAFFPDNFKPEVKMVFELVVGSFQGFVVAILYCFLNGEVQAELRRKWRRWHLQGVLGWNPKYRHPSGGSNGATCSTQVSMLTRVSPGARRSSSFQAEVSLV

[5] = target: C-C chemokine receptor type 2 (Homo sapiens, UniProt P41597); assay type: cell membranes, CHO-K1, Membrane; conditions: cho-k1; further: in other assays of this panel Not Active means under 50% inhibition at 10 µM
C-C chemokine receptor type 2, sequence (P41597 whole entry): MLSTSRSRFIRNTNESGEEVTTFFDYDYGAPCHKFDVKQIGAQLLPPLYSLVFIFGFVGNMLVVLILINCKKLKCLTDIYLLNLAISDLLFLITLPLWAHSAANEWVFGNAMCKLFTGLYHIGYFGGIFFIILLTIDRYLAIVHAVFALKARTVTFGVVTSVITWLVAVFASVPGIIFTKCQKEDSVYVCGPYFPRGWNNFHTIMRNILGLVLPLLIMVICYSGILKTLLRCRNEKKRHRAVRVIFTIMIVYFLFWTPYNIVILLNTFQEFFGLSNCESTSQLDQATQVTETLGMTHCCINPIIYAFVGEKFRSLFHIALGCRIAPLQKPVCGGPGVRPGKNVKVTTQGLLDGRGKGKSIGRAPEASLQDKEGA

[6] = target: T3, C-X-C chemokine receptor type 2 (Homo sapiens, UniProt P25025); assay type: cell membranes, Membrane; conditions: cho-k1; further: in other assays of this panel Not Active means under 50% inhibition at 10 µM
T3 sequence (P25025 whole entry): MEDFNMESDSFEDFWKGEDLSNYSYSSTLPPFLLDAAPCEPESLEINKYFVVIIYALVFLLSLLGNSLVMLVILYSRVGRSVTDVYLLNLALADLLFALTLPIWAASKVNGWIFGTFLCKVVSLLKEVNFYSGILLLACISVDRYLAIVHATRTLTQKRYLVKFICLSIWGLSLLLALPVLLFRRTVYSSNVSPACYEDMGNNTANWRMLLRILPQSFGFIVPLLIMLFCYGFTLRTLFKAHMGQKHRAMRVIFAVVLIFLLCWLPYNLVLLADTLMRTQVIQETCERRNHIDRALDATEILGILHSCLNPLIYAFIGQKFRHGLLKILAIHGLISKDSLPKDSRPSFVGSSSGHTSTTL

Endothelin-1 receptor = target: T4, Endothelin-1 receptor (Homo sapiens, UniProt P25101); assay type: cell membranes, Membrane; conditions: cho-k1; further: in other assays of this panel Not Active means under 50% inhibition at 10 µM
T4 sequence (P25101 whole entry): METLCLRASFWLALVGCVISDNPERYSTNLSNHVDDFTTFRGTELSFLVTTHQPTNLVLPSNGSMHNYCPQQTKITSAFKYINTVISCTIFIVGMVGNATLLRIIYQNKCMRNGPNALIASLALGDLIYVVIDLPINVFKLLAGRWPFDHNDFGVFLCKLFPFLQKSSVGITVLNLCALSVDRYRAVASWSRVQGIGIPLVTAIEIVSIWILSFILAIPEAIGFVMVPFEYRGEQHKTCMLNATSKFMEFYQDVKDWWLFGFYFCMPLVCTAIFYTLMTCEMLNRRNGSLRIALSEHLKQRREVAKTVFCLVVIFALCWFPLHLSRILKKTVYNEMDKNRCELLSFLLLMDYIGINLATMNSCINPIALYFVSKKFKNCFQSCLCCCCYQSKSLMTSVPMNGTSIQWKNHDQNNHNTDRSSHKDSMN

Cathepsin G = target: T5, Cathepsin G (Homo sapiens, UniProt P08311); assay type: tissue-based; conditions: neutrophil
T5 sequence (P08311 whole entry): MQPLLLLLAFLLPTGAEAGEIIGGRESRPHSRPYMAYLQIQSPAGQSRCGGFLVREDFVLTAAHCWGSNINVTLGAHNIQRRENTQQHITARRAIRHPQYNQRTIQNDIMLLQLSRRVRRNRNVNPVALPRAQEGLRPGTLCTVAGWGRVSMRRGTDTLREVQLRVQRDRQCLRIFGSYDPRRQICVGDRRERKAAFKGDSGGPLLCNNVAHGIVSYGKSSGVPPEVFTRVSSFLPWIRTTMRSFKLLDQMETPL

Adenosine receptor A1 = target: T6, Adenosine receptor A1 (Homo sapiens, UniProt P30542); assay type: cell membranes, CHO, Membrane; conditions: cho
T6 sequence (P30542 whole entry): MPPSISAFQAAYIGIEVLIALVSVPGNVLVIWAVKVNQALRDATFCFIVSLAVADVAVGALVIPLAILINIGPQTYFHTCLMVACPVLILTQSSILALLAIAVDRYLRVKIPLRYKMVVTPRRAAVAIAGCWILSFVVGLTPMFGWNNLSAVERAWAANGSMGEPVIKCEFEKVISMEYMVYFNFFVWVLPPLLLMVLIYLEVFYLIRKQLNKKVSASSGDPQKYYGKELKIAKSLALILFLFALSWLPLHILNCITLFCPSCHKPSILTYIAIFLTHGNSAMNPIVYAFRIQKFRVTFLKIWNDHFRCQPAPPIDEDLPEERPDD

Structure (SMILES) | IC50 [1] | IC50 [2] | IC50 [3] | IC50 [4] | IC50 [5] | IC50 [6] | IC50 (Endothelin-1 receptor) | IC50 (Cathepsin G) | IC50 (Adenosine receptor A1) | pIC50 [1] | pKi [1] | pIC50 [2] | pKi [2]
CN[C@@H]1[C@@H](O)[C@@H](O[C@@H]2[C@@H](O)[C@H](O[C@H]3OC(CN)=CC[C@H]3N)[C@@H](N)C[C@H]2N)OC[C@]1(C)O [SISOMICIN] | Not Active | Not Active | Not Active | Not Active | Not Active | Not Active | Not Active | Not Active | Not Active | – | – | – | –
NNc1ccccc1 [PHENYLHYDRAZINE] | Not Active | Not Active | Not Active | Not Active | Not Active | Not Active | Not Active | Not Active | Not Active | – | – | – | –
C[C@](N)(Cc1ccc(O)cc1)C(=O)O [METYROSINE] | Not Active | Not Active | Not Active | Not Active | Not Active | Not Active | Not Active | Not Active | Not Active | – | – | – | –
CN1CCN2c3ccccc3Cc3ccccc3C2C1 (stereo unspecified) [MIANSERIN] | – | – | Not Active | Not Active | Not Active | Not Active | Not Active | Not Active | Not Active | – | – | – | –
CC(=O)[C@H]1CC[C@H]2[C@@H]3CCC4=CC(=O)CC[C@]4(C)[C@H]3CC[C@]12C [PROGESTERONE] | Not Active | Not Active | Not Active | Not Active | Not Active | Not Active | Not Active | Not Active | Not Active | – | – | – | –
Nc1ccc(S(=O)(=O)Nc2ccnn2-c2ccccc2)cc1 [SULFAPHENAZOLE] | Not Active | Not Active | Not Active | Not Active | Not Active | Not Active | Not Active | Not Active | Not Active | – | – | – | –
CC(CCc1ccccc1)NCC(O)c1ccc(O)c(C(N)=O)c1 (stereo unspecified) [LABETALOL] | – | – | Not Active | Not Active | Not Active | Not Active | Not Active | Not Active | Not Active | 7.24 | 7.64 | 5.52 | 5.71
CC(C)(C)NC(=O)[C@@H]1CN(Cc2cccnc2)CCN1C[C@@H](O)C[C@@H](Cc1ccccc1)C(=O)N[C@H]1c2ccccc2C[C@H]1O.O | Not Active | Not Active | Not Active | Not Active | Not Active | Not Active | Not Active | Not Active | Not Active | – | – | – | –
CSc1ccc2c(c1)N(CCC1CCCCN1C)c1ccccc1S2 (stereo unspecified) [THIORIDAZINE] | – | – | Not Active | Not Active | Not Active | Not Active | Not Active | Not Active | Not Active | 8.29 | 8.69 | – | –
CN(C)CCCN1c2ccccc2CCc2ccc(Cl)cc21 [CLOMIPRAMINE] | – | – | Not Active | Not Active | Not Active | Not Active | Not Active | Not Active | Not Active | – | – | 6.62 | 6.82
CC(C)(O)c1ccccc1CC[C@@H](SCC1(CC(=O)O)CC1)c1cccc(/C=C/c2ccc3ccc(Cl)cc3n2)c1 [MONTELUKAST] | Not Active | – | Not Active | Not Active | Not Active | Not Active | Not Active | Not Active | Not Active | – | – | – | –
Clc1ccccc1C(c1ccccc1)(c1ccccc1)n1ccnc1 [CLOTRIMAZOLE] | – | – | Not Active | Not Active | Not Active | Not Active | Not Active | Not Active | – | 4.58 | 4.97 | 4.94 | 5.13
COC(=O)[C@@H]1[C@H]2C[C@H]3c4[nH]c5ccccc5c4CCN3C[C@@H]2CC[C@@H]1O [YOHIMBINE] | – | – | Not Active | Not Active | Not Active | Not Active | Not Active | Not Active | Not Active | – | – | – | –
O=C(CCCN1CCC(O)(c2ccc(Cl)cc2)CC1)c1ccc(F)cc1 [HALOPERIDOL] | – | – | Not Active | Not Active | Not Active | Not Active | Not Active | Not Active | Not Active | – | – | – | –
COc1ccc(CCN2CCC(Nc3nc4ccccc4n3Cc3ccc(F)cc3)CC2)cc1 [ASTEMIZOLE] | – | – | Not Active | Not Active | Not Active | Not Active | Not Active | Not Active | Not Active | 7.62 | 8.00 | – | –
